Measurements as given in patent publication US6930103B2, “Use of vasopeptidase inhibitors in the treatment of metabolic diseases, nephropathy and advanced glycation end-product associated diseases” (Aventis Pharma Deutschland GmbH, priority 2002, dated 2005).

Legend:
[1] = test system: Zucker Diabetic Fatty (ZDF) Rats (ZDF Gmi fa/fa); assay: Urinary excretion of albumin and creatinine in ZDF rats treated from 10 to 37 weeks of age; assay type: in vivo, rat; conditions: for Urine excretion Albumin / Urine excretion Albumin/Creatinine: ZDF rats, mean
Experimental: The protein and creatinine excretion in the urine of male Zucker Diabetic Fatty (ZDF) Rats (ZDF Gmi fa/fa) and heterozygous control animals (ZDF Gmi −/+) of 10, 17, 27 and 37 weeks age was determined. In further groups, diabetic rats were chronically given either ramipril (1 mg/kg/day, in drinking water) or a compound of formula (II-B) (30 mg/kg/day, in food) over a period from 10 to 37 weeks. The animals were sacrificied after 37 weeks, and their kidneys examined histologically.

Goto-Kakizaki (GK) rats = assay: Albumin and creatinine excretion in Goto-Kakizaki (GK) rats; assay type: in vivo, rat; conditions: start at age 6 months, mean
Experimental: The albumin and creatinine excretion in Goto-Kakizaki (GK) rats was determined. GK rats are a model for Type II diabetes. One group was left untreated, one was treated with the ACE/NEP inhibitor of formula (II-B) and one group was treated with the ACE inhibitor ramipril. [table]

Wistar rats = assay: Albumin and creatinine excretion in Wistar rats (non-diabetic nephropathy); assay type: in vivo, rat; conditions: for Albumin/Creatinine: Wistar rats, start at age 6 months, mean
Experimental: The albumin and creatinine excretion in Wistar rats was determined. One group was left untreated, one was treated with the ACE/NEP inhibitor of formula (II-B) and one group was treated with the ACE inhibitor ramipril. Wistar rats are non-diabetic and develop proteinuria and structural kidney damage during adult life. Wistar rats are therefore a model for non-diabetic nephropathy. [table]

ZDF rats = assay: RP-HPLC analysis of CML in kidney and heart of ZDF rats; assay type: in vivo, rat; conditions: for mean CML conc.: RP-HPLC, ZDF Placebo = 100
Experimental: Kidney AGE values were determined by Dot blot analysis (Stracke et al., Exp. Clin. Endocrinol. Diabets 2002, 109, 330-336) and Reversed-phase high performance liquid chromatography or RP-HPLC (Drusch et al., Food Chem. 1999, 65, 547-553).
[…] Two animals of each group were analyzed. Grinding of the kidney and heart was performed in liquid nitrogen using a freezer mill (Freezer 6750, C3 Analysetechnik GmbH). Hydrolysis of the organ samples was performed with 6 M hydrochloric acid (HCl) at 110° C. for 12 hours. Sample treatment with o-phthaldialdehyde (OPA) and RP-HPLC was performed as described in Drusch et al., Food Chem. 1999, 65, 547-553.

[2] = test system: Zucker diabetic fatty rats; assay: Blood glucose analysis in ZDF rats; assay type: in vivo, rat; conditions: for blood glucose, mean: ZDF rats
Experimental: (§1) Blood glucose and HbA1c was measured in 10- and 17-week-old male Zucker diabetic fatty rats (Genetic Model Inc.), control rats (Genetic Model Inc.) and male ZDF rats treated for seven weeks with 30 mg/kg/d of compound (II-B), 35 mg/kg/d of compound (III-B) and 1 mg/kg/d ramipril. Fifteen animals were analyzed in each group.
Blood samples for glucose determination were obtained from ZDF rats using standard sampling tubes. Within 30 minutes of collection, samples were separated from the cells by centrifugation. Quantitative determination of blood glucose in serum was performed with an enzymatic in vitro test from Roche Diagnostics GmbH (Gluco-quant, Roche Diagnostics GmbH) using the automated clinical chemistry analyzer Boehringer Mannheim/Hitachi 912.

[3] = test system: Zucker diabetic fatty rats; assay: HbA1c analysis in ZDF rats; assay type: in vivo, rat; conditions: for HbA1c, mean: ZDF rats
Experimental: as §1
To obtain blood samples for HbA1c determination, disposable capillary tubes were used. HbA1c values were obtained from hemolyzed whole blood samples with a turbidimetric inhibition immunoassay (Tina-quant, Roche Diagnostics GmbH) and hemoglobin concentrations were determined in a second channel on an automated clinical chemistry analyzer (Boehringer Mannheim/Hitachi 912). HbA1c concentration in percent were calculated from HbA1c to total hemoglobin.

[4] = test system: isolated aortic rings of rabbits; assay: Relaxation of aortic rings by acetylcholine in rabbits fed an atherogenic diet; assay type: in vivo, White New Zealand rabbits; conditions: for Relaxation of aortic rings by acetylcholine: varied diet rabbits, mean ± SEM
Description: It was shown in the atherogenic rabbit model (White New Zealand rabbits were fed with 0.25% cholesterol plus 3% coconut oil) that even a short 6 week period of an atherogenic diet leads to sustained endothelial dysfunction, even though the animals received a normal diet for 3 months thereafter. […] The endothelium-dependent relaxation of isolated aortic rings of rabbits as well as the release of nitric oxide and superoxide from endothelial cells serve as measures of endothelial dysfunction. […] (II-B) [table]

[5] = age 10 weeks (start of treatment)
[6] = age 17 weeks (treated for seven weeks)

CC(=O)S[C@H](C(=O)N[C@H]1Cc2ccccc2[C@H]2CCC[C@@H](C(=O)O)N2C1=O)C(C)C [cpd. (II-B)]
Urine excretion Albumin ([1]; week 0 of treatment): 0.27 mg/kg/h
Urine excretion Albumin/Creatinine ([1]; week 0 of treatment): 48.56 mg/mmol
Urine excretion Albumin ([1]; week 7 of treatment): 0.09 mg/kg/h
Urine excretion Albumin/Creatinine ([1]; week 7 of treatment): 14.30 mg/mmol
Urine excretion Albumin ([1]; week 17 of treatment): 0.41 mg/kg/h
Urine excretion Albumin/Creatinine ([1]; week 17 of treatment): 44.63 mg/mmol
Urine excretion Albumin ([1]; week 27 of treatment): 1.39 mg/kg/h
Urine excretion Albumin/Creatinine ([1]; week 27 of treatment): 152.71 mg/mmol
Effect relative to the ACE inhibitor ramipril ([1]; nephroprotective effect, compared with ramipril): 6-8 fold
Albumin/Creatinine (Goto-Kakizaki (GK) rats; 6 weeks treatment): 17.70 mg/mmol
Albumin/Creatinine (Goto-Kakizaki (GK) rats; 12 weeks treatment): 24.28 mg/mmol
Albumin/Creatinine (Goto-Kakizaki (GK) rats; Basal): 103.95 mg/mmol
Albumin/Creatinine (Wistar rats; 6 weeks treatment): 18.07 mg/mmol
Albumin/Creatinine (Wistar rats; 12 weeks treatment): 21.21 mg/mmol
Albumin/Creatinine (Wistar rats; Basal): 130.45 mg/mmol
Nephroprotective effect compared with ramipril as determined by the extent of proteinuria (Wistar rats; non-diabetic model, in words): significantly higher nephroprotective effect than ramipril
mean CML conc. (ZDF rats; hearts of 17-week-old ZDF rats): 26%
mean CML conc. (ZDF rats; kidneys of 17-week-old ZDF rats): 55%
mean CML conc. (ZDF rats; kidneys of 37-week-old ZDF rats): 58%
CML concentration in the heart of 17-week-old ZDF rats (ZDF rats; in words): reduces
CML concentration in the kidneys of 17-week-old ZDF rats (ZDF rats; in words): reduces
CML concentration in the kidneys of 37-week-old ZDF rats (ZDF rats; in words): reduces
Blood glucose concentration compared to the untreated ZDF rats ([2]; 17-week-old ZDF rats, in words): significantly lower
blood glucose, mean [2, 5]: 10.67 mM
blood glucose, mean [2, 6]: 21.09 mM
Blood glucose value compared with the ACE inhibitor ramipril ([2]; in words): lower values
HbA1c values compared to the untreated ZDF rats ([3]; 17-week-old ZDF rats, in words): significantly lower
HbA1c, mean [3, 5]: 5.69%
HbA1c, mean [3, 6]: 8.24%
HbA1c value compared with the ACE inhibitor ramipril ([3]; in words): lower values
Relaxation of aortic rings by acetylcholine ([4]; ACh 10^−5 mol/L after phenylephrine 10^−7 mol/L): 80.89 ± 6.82%
Relaxation of aortic rings by acetylcholine ([4]; ACh 10^−6 mol/L after phenylephrine 10^−7 mol/L): 76.4 ± 6.38%
Relaxation of aortic rings by acetylcholine ([4]; ACh 10^−7 mol/L after phenylephrine 10^−7 mol/L): 59.62 ± 6.43%
Relaxation of aortic rings by acetylcholine ([4]; ACh 10^−8 mol/L after phenylephrine 10^−7 mol/L): 19.9 ± 3.48%
Endothelial dysfunction and atherogenic changes in the blood vessels ([4]; atherogenic rabbit model, in words): both prevented and reversed
